Counter-ions that a name gives are not always drawn.
Key:
[1] = Protection against anaphylactic shock (horse serum); type: in vivo, male albino guinea pigs; settings: parenteral, with horse serum challenge, after 12 h
Method: The anaphylactic shock has been induced according to the method of S. M. Feinberg, M. Pharmacol. Exp. Therapeut., 99, 195 (1950). There have been used male albino guinea pigs of average weight, 350±20 grams previously stabilized for a period of ten days at a temperature of 21°±1° C., under conditions of controlled diet and water "ad libitum". Three days before the beginning of the experiment, the animals are divided in groups of ten for the purpose of achieving good randomization. Each single dose has been tried on three groups of animals.
The sensitization has been carried out by administration of 1 ml/guinea pig through the endovenous route of horse serum, (whole serum, not treated with preservatives) diluted 1:10 in physiological saline solution. After 14 days, the solutions of the substances being tested and the samples of physiological solutions for use with the controls are administered through the parenteral route. Simultaneously, 1 ml/guinea pig of horse serum, undiluted is administered, this substance being used as the agent which prompts the anaphylaxis. The percentage of mortality is determined after 12 hours.

[2] = Protection against shock caused by endotoxins (lipopolysaccharide B from S. Enteritidis); type: in vivo, male rats of Wistar type; settings: parenteral, 1 h before endotoxin, after 24 h
From the text: Endotoxin-induced shock has been produced according to the method reported by A. Bertelli and L. Donati, in the publication "The Influence of Some Enzymes and Enzymes Inhibitors in Shock", published in "SHOCK Biochemical,Pharmaceutical and Clinical Aspects"; A. Bertelli and N. Back Editors, Advances in Experimental Medicine and Biology; Volume 9, Plenum Press New York - London 1970, page 215. By way of comparison, there has been used a substance of well known therapeutical activity, specifically aprotinine, the commercial products marketed by Farbenfabriken Bayer, under the name "Trasylol". Male rats of Wistar type of 120 grams by weight ±10 have been used. The rats were previously stabilized for a period of ten days at a temperature of 21°±1° C. under a controlled diet and water "ad libitum". Twenty-four hours prior to the test, the animals were divided in groups of ten for the purpose of achieving randomization. Every single dose has been tried on six groups of animals.
Lipopolysaccharide B from S. Enteritidis (Difco Labs.) was used as the endotoxin. This substance was administered in the dose of 10 mg/kg by the endoperitoneal route, one hour after administration of the substance being administered by the parenteral route or in the form of a physiological solution in equal volume per kilogram to the animals being used as control.
The mortality in percent was determined in the animals being tested as compared with the controls after twenty-four hours.

[3] = tested on: Fibrin Degradation Products; test: Inhibition of hyperfibrinolysis caused by urokinase (F.D.P., staphylococcal clumping test); type: in vivo, Wistar rats; settings: parenteral, 30 min before urokinase 2500 U.I/rat
Method: The induction of hyperfibrinolysis state is caused by administration of urokinase. The determination of the inhibition is carried out by determination of the F.D.P. value, that is Fibrin Degradation Products, according to the procedure of J. Hawiger et al, J. Lab. Clin. Med. 75, 93 (1970), by means of the staphylococcal clumping test (Boehringer Mannheim GmbH test).
There are used Wistar rats of 300 grams ±10 by weight previously stabilized for a period of ten days at a temperature of 21°±1° C., under conditions of controlled diet and water "ad libitum". Twenty-four hours prior to the beginning of the experiment, the animals are divided in groups of ten for the purpose of achieving randomization. Each individual dose is tried on three groups of animals.
At the beginning of the test, zero time, the compounds being tested are administered through the parenteral route. In the case of the control animals, at the same time an equal volume of a physiological saline solution is administered except that some blood is removed by means of a cardiac puncture, for the purpose of determining the basal fibrinolytic activity. After 30 minutes, human urokinase (the composition marketed by Ukidan-Serono) is administered intravenously in the amount of 2500 U.I/rat. After an additional period of ten minutes, blood is removed by means of a cardiac puncture for the final determination of F.D.P., a determination which is expressed in […].

[4] = Protection against pulmonary edema (adrenaline-induced acute edema of the lungs); type: in vivo, male albino rats of Wistar type; settings: parenteral, 15 min before adrenaline
Method: The method of A. M. Rothschild and A. Castania (Arch. Pharmacol., 295, 177 (1976)), has been used to develop the acute edema in the lungs and substances of known therapeutic activity have been used for comparison purpose.
For the test, male albino rats of Wistar type of average weight 250-350 grams, have been used for the test. The rats were stabilized for a period of ten days at a temperature of 21°±1° C., under conditions of controlled diet and water "ad libitum". Prior to the test, the animals were divided into groups of ten for the purpose of achieving good randomization. Each dose was tried on three groups of animals. The animals were anesthetized with pentobarbital in a dose of 30 mg/kg at the beginning of the test. After the animals were in complete narcosis, the following substances were administered by the parenteral route:
1. to the animals as controls, physiological saline solution in the amount of 1 ml/kg,
2. to the animals in the test, a solution of the substance being tested in physiological saline solution in the amount of 1 ml/kg in the doses reported hereinbelow in the table.
After a period of 15 minutes, for the purpose of determining the protective activity of the substances, adrenaline was administered in the amount of 16 γ/kg by the endovenous route and in physiological saline solution, for the purpose of causing acute edema.
After five minutes, the animals were killed by removal of the head, the lungs were removed and the weight of the lungs were determined. The results of the test are reported in Table 1 hereinbelow, together with the concentration of the substances and the relative inhibition of edema in percent.

| Compound | % MORTALITY ([1]; dose 10 mg/kg) | % MORTALITY ([1]; dose 20 mg/kg) | % MORTALITY ([1]; dose 50 mg/kg) | % MORTALITY ([2]; dose 5 mg/kg) | % MORTALITY ([2]; dose 10 mg/kg) | % MORTALITY ([2]; dose 20 mg/kg) | % MORTALITY ([2]; dose 50 mg/kg) | F.D.P. ([3]; dose 5 mg/kg) | F.D.P. ([3]; dose 10 mg/kg) | F.D.P. ([3]; dose 20 mg/kg) | % INHIBITION OF EDEMA ([4]; dose 1 mg/kg) | % INHIBITION OF EDEMA ([4]; dose 2.5 mg/kg) | % INHIBITION OF EDEMA ([4]; dose 5 mg/kg) | % INHIBITION OF EDEMA ([4]; dose 10 mg/kg) | % INHIBITION OF EDEMA ([4]; dose 20 mg/kg) | also measured |
| --- | --- | --- | --- | --- | --- | --- | --- | --- | --- | --- | --- | --- | --- | --- | --- | --- |
| N=C(N)NCCC[C@H](N)C(=O)O [L-Arginine.2HCl] | 78.5% | 76.3% | 80% | 69% | 73% | 71% | 78% | 3.28 milliliters | 2.96 milliliters | 3.15 milliliters | 7% | 9% | 11% | 10.1% | 13.1% |  |
| CCOC(=O)[C@H](N)CCCNC(=N)N [D-A.E., DArginine ethyl ester hydrochloride] | 76.7% | 79.4% | 81.0% | 72% | 67% | 69.3% | 71% | 3.20 milliliters | 3.16 milliliters | 3.19 milliliters | 4.2% | 7% | 5.3% | 6% | 2.5% | % INHIBITION OF EDEMA ([4]; dose 0.1 mg/kg): 7%; % INHIBITION OF EDEMA ([4]; dose 0.25 mg/kg): 11%; % INHIBITION OF EDEMA ([4]; dose 0.5 mg/kg): 3% |
| CCO [Ethanol] |  |  |  |  |  |  |  |  |  |  |  |  |  |  |  | % MORTALITY ([1]; dose 2 mg/kg): 76.4%; % MORTALITY ([1]; dose 4 mg/kg): 74%; % MORTALITY ([1]; dose 8 mg/kg): 76.5%; % MORTALITY ([2]; dose 2 mg/kg): 67%; % MORTALITY ([2]; dose 4 mg/kg): 69%; % MORTALITY ([2]; dose 8 mg/kg): 73%; F.D.P. ([3]; dose 2 mg/kg): 3.06 milliliters; F.D.P. ([3]; dose 4 mg/kg): 2.95 milliliters; F.D.P. ([3]; dose 8 mg/kg): 3.11 milliliters; % INHIBITION OF EDEMA ([4]; dose 0.08 mg/kg): 7%; % INHIBITION OF EDEMA ([4]; dose 0.8 mg/kg): 12%; % INHIBITION OF EDEMA ([4]; dose 2 mg/kg): 15%; % INHIBITION OF EDEMA ([4]; dose 4 mg/kg): 14.7%; % INHIBITION OF EDEMA ([4]; dose 8 mg/kg): 16%; % INHIBITION OF EDEMA ([4]; dose 16 mg/kg): 15.9% |
| COC(=O)[C@@H](N)CCCNC(=N)N [L-A.M., LArginine methyl ester hydrochloride] | 40.5% | 27% | 12.5% | 55.0% | 50.0% | 40.0% | 28.0% | 0.48 milliliters | 0.30 milliliters | 0.25 milliliters | 21.2% | 27.4% | 29.0% | 55.7% | 15.7% |  |
| CO [Methanol] |  |  |  |  |  |  |  |  |  |  |  |  |  |  |  | % MORTALITY ([1]; dose 2 mg/kg): 76.6%; % MORTALITY ([1]; dose 4 mg/kg): 79.4%; % MORTALITY ([1]; dose 8 mg/kg): 81%; % MORTALITY ([2]; dose 2 mg/kg): 76%; % MORTALITY ([2]; dose 4 mg/kg): 72%; % MORTALITY ([2]; dose 8 mg/kg): 74%; F.D.P. ([3]; dose 2 mg/kg): 3.02 milliliters; F.D.P. ([3]; dose 4 mg/kg): 3.12 milliliters; F.D.P. ([3]; dose 8 mg/kg): 3.27 milliliters; % INHIBITION OF EDEMA ([4]; dose 0.08 mg/kg): 2.3%; % INHIBITION OF EDEMA ([4]; dose 0.8 mg/kg): 5%; % INHIBITION OF EDEMA ([4]; dose 2 mg/kg): 12%; % INHIBITION OF EDEMA ([4]; dose 4 mg/kg): 6%; % INHIBITION OF EDEMA ([4]; dose 8 mg/kg): 15%; % INHIBITION OF EDEMA ([4]; dose 16 mg/kg): 15% |
| Aprotinin |  |  |  |  |  |  |  |  |  |  |  |  |  |  |  | % MORTALITY ([1]; dose 3000 U.I.K./kg): 40%; % MORTALITY ([1]; dose 10000 U.I.K./kg): 55%; % MORTALITY ([1]; dose 100000 U.I.K./kg): 80%; % MORTALITY ([2]; dose 1000 U.I.K./kg): 50.0%; % MORTALITY ([2]; dose 3000 U.I.K./kg): 65.0%; % MORTALITY ([2]; dose 10000 U.I.K./kg): 65.0%; % MORTALITY ([2]; dose 100000 U.I.K./kg): 93.3%; F.D.P. ([3]; dose 1000 U.I.K./kg): 0.34 milliliters; F.D.P. ([3]; dose 3000 U.I.K./kg): 0.29 milliliters; F.D.P. ([3]; dose 10000 U.I.K./kg): 0.30 milliliters; % INHIBITION OF EDEMA ([4]; dose 30 U.I.K./kg): 17.3%; % INHIBITION OF EDEMA ([4]; dose 100 U.I.K./kg): 36.5%; % INHIBITION OF EDEMA ([4]; dose 300 U.I.K./kg): 54.5%; % INHIBITION OF EDEMA ([4]; dose 1000 U.I.K./kg): 42.7% |
| CC(=O)Oc1ccccc1C(=O)O [Aspirin] |  |  |  |  |  |  |  |  |  |  | 32.2% | 36.9% | 48.2% | 54.3% | 19.6% |  |
| NC[C@H]1CC[C@H](C(=O)O)CC1 [Tranexamic Acid, trans4-(aminomethyl)cyclohexancarboxylic acid] |  |  |  |  |  |  |  | 0.58 milliliters | 0.39 milliliters | 0.33 milliliters |  |  |  |  |  |  |
